Read-outs that look alike come from different tables or passages of the source.
What was measured:
[1] = Renal Proximal Tubule Epithelial Cell Toxicity Screen; type: cell-based
Method: The Renal Proximal Tubule Epithelial Cell Toxicity Screen is designed to determine whether compound mixtures, breakouts or single compounds are toxic to normal renal epithelial cells. […] Basically, the screen consists of plating renal epithelial cells, exposing them to the desired compound(s) for 4 days and measuring cell viability using the Alamar Blue reagent.
Harvested Kidney Epithelial cells were diluted in REGM to 1.5×10^4 cells/mL. […] NOTE: One plate, the T=0 plate required that 20-30 wells be seeded, and all the other plates had 96 wells seeded. Plates were incubated in 37° C./5% CO2 incubator for 24 hours.
(§1) Alamar Blue solution (25 μL/well) was added to the T=0 plate and mixed. The plate was incubated in 37° C./5% CO2 incubator for 4 hours, mixed and then the fluorescence was measured. 10% Tween 20 stock (10 μL) was added into rows A-D in column 1 (positive control). DMSO (0.5 μL) was added into column 2 (negative control). Compounds were placed into designated wells for desired testing as follows:
Plates were mixed on the shaker, and then incubated in 37° C./5% CO2 incubator for 96 hours. Day 6:
Alamar Blue solution (25 μL/well) was added to the plates containing the compounds and mixed. Plates were incubated in 37° C./5% CO2 incubator for 4 hours, mixed and the fluorescence was measured.

pfDHODH [2] = biological target: T1, pfDHODH (Plasmodium falciparum (isolate 3D7), UniProt Q08210); experiment: pfDHODH activity with FeCy as electron acceptor; conditions: read-out: % Inhibition of Product Formation Rate with 50 μM Inhibitor, FeCy
Method: Inhibitors of DHODH, as classified by the chromogen reduction assay, were also evaluated for activity using FeCy as an electron acceptor. A final concentration of 5-50 nM DHODH, 200 μM L-DHO and 100 μM FeCy in Buffer C was used in this assay. Both the reduction of FeCy and the formation of orotate was monitored at 420 nm (ε420=1 mM^−1 cm^−1) and 290 nm (ε280=2 mM^−1 cm^−1), respectively, noting that two molecules of FeCy are reduced for one molecule of L-DHO. As with the previous assays, the reaction was performed at 25° C. and initiated with the addition of enzyme.

pfDHODH [3] = biological target: T1, pfDHODH; experiment: DHODH chromogen reduction (DCIP) assay, pfDHODH; type: biochemical, P. falciparum; conditions: for inhibition at 50 µM: 50 μM inhibitor, 100 μM CoQD, 60 μM DCIP, read-out: % Inhibition of Product Formation Rate with 50 μM Inhibitor, CoQD
Excerpt: (§2) Type 2 DHODH activity was monitored with either the direct assay measuring the formation of orotate or via a chromogen reduction assay using DCIP. Although the extinction coefficient and absorption wavelength are preferable for the chromogen reduction assay, the inorganic electron acceptor DCIP can be utilized by DHODH as the final electron acceptor in lieu of CoQn when the endogenous substrate is at a low concentration. As such, the direct assay was used to measure the binding affinity of pfDHODH to CoQD and L-DHO. The enzymatic reaction was performed by varying the L-DHO concentration (1-400 μM) or CoQD concentration (1-200 μM) while keeping the other substrate constant and in excess.
(§3) Substrate specificity and enzyme inhibition data was analyzed with GraphPad Prism Version 4 for Windows (GraphPad Software). Kinetic constants were calculated by non-linear regression fitting of the data to the Michaelis-Menten equation [36]. IC50 values were determined by non-linear regression fitting of the data to Equation 1: […]

P. falciparum Dd2 = experiment: Inhibition of in vitro P. falciparum culture, [3H]-hypoxanthine uptake, Dd2; type: cell-based; conditions: Plasmodium falciparum; for IC50: DD2, Erythrocyte, read-out: Dd2 IC50
Method: (§4) P. falciparum strains D10, 3D7, HB3, and Dd2 were obtained from the Malaria Research and Reference Reagent Resource Center (Manassas, Va.). The parasite strains were maintained in vitro by method of Trager and Jensen. The inhibition of P. falciparum growth in the presence of drug was assessed by the relative reduction of [^3H]-hypoxanthine uptake as previously described. Inhibition data were fitted to Equation 1 using non-linear regression analysis except that the relative velocity of parasite growth was substituted for the rate of product formation.

[4] = Normal Human Dermal Fibroblast Toxicity Screen; type: cell-based; conditions: human, normal human dermal fibroblasts; four days exposure, Alamar Blue; read-out: Dermal Fibroblast LC50
Method: The Normal Human Dermal Fibroblast Toxicity Screen Protocol is designed to determine whether compound mixtures, breakouts or single compounds are toxic to normal human dermal fibroblasts. The screen involves plating the dermal fibroblasts and then exposing them to the compounds for four days, then cell viability is measured using Alamar Blue reagent.
Harvested Dermal Fibroblast cells were diluted in Growth Media to 0.25 to 0.3×10^5 cells/mL. […] NOTE: One plate, the T=0 plate required that 20-30 wells be seeded and all the other plates had 96 wells seeded. Plates were incubated in 37° C./5% CO2 incubator for 24 hours.
as §1, with “the plate was agitated.” for “mixed.”, “plate” for “plate was incubated”, “incubator was incubated” for “incubator”, “3” for “4”, “agitated the” for “mixed”, “and” for “and then”
Plates were mixed on the shaker, then incubated in 37° C./5% CO2 incubator for 96 hours.
Alamar Blue solution (25 μL/well) was added to the plates containing the compounds, and the plates were agitated. The plates were incubated in 37° C./5% CO2 incubator for 3 hours, agitated and then the fluorescence was measured.

[5] = tested on: P. falciparum D10-scDHODH; experiment: Inhibition of transgenic D10-scDHODH parasites, [3H]-hypoxanthine uptake; type: cell-based; conditions: for IC50: Plasmodium falciparum, D10, read-out: D10-scDHODH IC50; for efficacy against D10-scDHODH strain compared to D10 parent strain: dose-effect curves, FIG. 5
Method: as §4
Transgenic parasites expressing scDHODH were generated as described by Painter et al. except that full length scDHODH was cloned directly into the pGem3Z vector without a GFP tag. The resultant plasmid was transfected into ring stages of P. falciparum D10 by electroporation and maintained in culture using standard methods under the selection of WR99210.

P. falciparum D10 = experiment: Inhibition of in vitro P. falciparum culture, [3H]-hypoxanthine uptake, D10; type: cell-based; conditions: Plasmodium falciparum, D10, Erythrocyte, read-out: D10 IC50
Method: as §4

P. falciparum 3D7 = experiment: Inhibition of in vitro P. falciparum culture, [3H]-hypoxanthine uptake, 3D7; type: cell-based; conditions: Plasmodium falciparum; for IC50: 3D7, Erythrocyte, read-out: 3D7 IC50
Method: as §4

P. falciparum HB3 = experiment: Inhibition of in vitro P. falciparum culture, [3H]-hypoxanthine uptake, HB3; type: cell-based; conditions: Plasmodium falciparum, HB3, Erythrocyte, read-out: HB3 IC50
Method: as §4

hsDHODH = hsDHODH (Homo sapiens (Human), UniProt Q02127); experiment: DCIP assay, hsDHODH; type: biochemical; conditions: Table 2b; read-out: Hu (human DHODH) IC50
Excerpt: as §2, with “excess. The formation of orotate was measured continuously at 296 nm (ε296=4.3 mM^−1 cm^−1). Inhibition of DHODH by small molecules was evaluated using the chromogen based assay with a final substrate concentration of 200 μM L-DHO, 18 μM CoQD, and 100 μM DCIP, unless otherwise noted. The reduction of DCIP was monitored at 600 nm (ε600=18.8 mM^−1 cm^−1).” for “excess.”
as §3

[6] = pfDHODH IC50, DCIP assay, 200 μM L-DHO, 18 μM CoQD, 100 μM DCIP, 20 nM enzyme
[7] = [3H]-hypoxanthine uptake by parasite infected erythrocytes

T1 sequence (Q08210 159-565 limits assumed): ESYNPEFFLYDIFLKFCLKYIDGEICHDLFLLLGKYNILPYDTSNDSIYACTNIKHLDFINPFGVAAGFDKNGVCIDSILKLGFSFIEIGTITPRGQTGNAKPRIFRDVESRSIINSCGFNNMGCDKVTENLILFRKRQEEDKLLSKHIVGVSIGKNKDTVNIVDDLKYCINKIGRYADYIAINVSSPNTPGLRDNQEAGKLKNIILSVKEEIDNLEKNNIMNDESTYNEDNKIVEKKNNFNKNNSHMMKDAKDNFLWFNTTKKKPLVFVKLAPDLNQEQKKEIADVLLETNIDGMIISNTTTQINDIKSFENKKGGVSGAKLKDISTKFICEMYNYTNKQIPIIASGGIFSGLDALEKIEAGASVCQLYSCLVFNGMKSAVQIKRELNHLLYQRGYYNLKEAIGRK
Sequence of hsDHODH (Q02127 29-395 limits assumed): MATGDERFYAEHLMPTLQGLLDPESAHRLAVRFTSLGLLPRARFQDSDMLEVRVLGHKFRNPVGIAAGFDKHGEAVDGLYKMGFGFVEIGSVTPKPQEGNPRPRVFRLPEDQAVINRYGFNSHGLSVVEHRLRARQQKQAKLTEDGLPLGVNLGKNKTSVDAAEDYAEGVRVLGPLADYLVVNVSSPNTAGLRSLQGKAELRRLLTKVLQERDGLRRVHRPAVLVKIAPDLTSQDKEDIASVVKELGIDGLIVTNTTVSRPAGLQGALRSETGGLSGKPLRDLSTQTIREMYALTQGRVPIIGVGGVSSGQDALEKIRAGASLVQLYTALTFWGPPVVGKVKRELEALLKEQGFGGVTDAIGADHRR

Compound: Cc1ccccc1/C=C/c1cc(O)c2ccccc2n1 [Compound 2]
- CC50 at 96 h [1]: > 62000 nM
- inhibition at 50 µM (pfDHODH [2]): 1.2%
- inhibition at 50 µM (pfDHODH [3]; 200 μM L-DHO): 94%
- IC50 (pfDHODH [3]; [6]): 930 ± 100 nM
- IC50 (P. falciparum Dd2; [7]): 250 nM
- CC50 at 96 h [4]: > 62000 nM
- IC50 [5]: 8800 nM
- IC50 (P. falciparum D10; [7]): 300 nM
- IC50 (P. falciparum 3D7; [7]): 320 nM
- IC50 (P. falciparum HB3; [7]): 240 nM

Compound: O=C1C(O)=C([C@H]2CC[C@H](c3ccc(Cl)cc3)CC2)C(=O)c2ccccc21 [Atovaquone, reference compound]
- IC50 (P. falciparum Dd2; [7]): 0.2 nM
- IC50 [5]: > 2000 nM
- efficacy against D10-scDHODH strain compared to D10 parent strain [5]: significantly reduced drug efficacy
- IC50 (P. falciparum D10; [7]): 0.42 nM
- IC50 (P. falciparum 3D7; [7]): 0.18 nM
- IC50 (P. falciparum HB3; [7]): 0.22 nM

Compound: CCN(CC)CCCC(C)Nc1ccnc2cc(Cl)ccc12 (stereo not drawn) [Chloroquine, reference compound]
- IC50 (P. falciparum Dd2): 180 nM
- IC50 [5]: 13 nM
- efficacy against D10-scDHODH strain compared to D10 parent strain [5]: equally sensitive
- IC50 (P. falciparum D10): 15 nM
- IC50 (P. falciparum 3D7): 10 nM
- IC50 (P. falciparum HB3): 8 nM

Compound: CCOC(=O)c1[nH]c(C)c(Cc2ccc(OCC)cc2)c1C [Compound 6]
- CC50 at 96 h [1]: > 62000 nM
- inhibition at 50 µM (pfDHODH [2]): 4.8%
- inhibition at 50 µM (pfDHODH [3]; 200 μM L-DHO): 102%
- IC50 (P. falciparum Dd2; [7]): 440 nM
- CC50 at 96 h [4]: > 62000 nM
- IC50 [5]: > 10000 nM
- IC50 (P. falciparum D10; [7]): 1200 nM
- IC50 (P. falciparum 3D7; [7]): 770 nM
- IC50 (P. falciparum HB3; [7]): 690 nM

Compound: Fc1cc(I)ccc1Nc1ccnc2cc(Cl)ccc12 [Compound 4]
- CC50 at 96 h [1]: 49000 nM
- inhibition at 50 µM (pfDHODH [2]): 7.7%
- inhibition at 50 µM (pfDHODH [3]; 200 μM L-DHO): 97%
- IC50 (pfDHODH [3]; [6]): 580 ± 100 nM
- IC50 (P. falciparum Dd2; [7]): 2300 nM
- CC50 at 96 h [4]: 64000 nM
- IC50 [5]: 980 nM
- IC50 (P. falciparum D10; [7]): 1000 nM
- IC50 (P. falciparum 3D7; [7]): 1800 nM
- IC50 (P. falciparum HB3; [7]): 2200 nM

Compound: Cc1nc2ccc(OC(F)(F)F)cc2n1-c1ccc(C(=O)NC2CC2)s1 [Compound 58]
- IC50 (pfDHODH [3]; Table 2b, read-out: pfDHODH IC50): 36 nM
- EC50 (P. falciparum Dd2; DD2, Table 2b, read-out: Dd2 EC50): 16 nM
- IC50 (hsDHODH): > 30000 nM
- EC50 (P. falciparum 3D7; 3D7, Table 2b, read-out: 3D7 EC50): 9 nM

Compound: CCCCCC1CCCc2c1nc1ccccc1c2O (stereo not drawn) [Compound 3]
- CC50 at 96 h [1]: > 62000 nM
- inhibition at 50 µM (pfDHODH [2]): 17%
- inhibition at 50 µM (pfDHODH [3]; 200 μM L-DHO): 100%
- IC50 (pfDHODH [3]; [6]): 340 ± 100 nM
- IC50 (P. falciparum Dd2; [7]): 230 nM
- CC50 at 96 h [4]: > 62000 nM
- IC50 [5]: > 10000 nM
- IC50 (P. falciparum D10; [7]): 370 nM
- IC50 (P. falciparum 3D7; [7]): 320 nM
- IC50 (P. falciparum HB3; [7]): 270 nM

Compound: CCc1nc(N)nc(N)c1-c1ccc(Cl)cc1 [Pyrimethamine, reference compound]
- IC50 (P. falciparum Dd2; [7]): > 10000 nM
- IC50 [5]: 47 nM
- IC50 (P. falciparum D10; [7]): 55 nM
- IC50 (P. falciparum 3D7; [7]): 36 nM
- IC50 (P. falciparum HB3; [7]): 940 nM

Reference: US8703811B2, “Small molecule inhibitors of Plasmodium falciparum dihydroorotate dehydrogenase” (Genzyme Corporation, priority 2008, dated 2014)
